# Positions of bridges follow the written chain, without caps; N, C: chain ends. Non-standard residues stand in square brackets, D forms with d. Residues, ends and D or L forms follow the SMILES beside them. *: point of attachment. X1 = CC[C@H](C)CCCCC(=O)*; Dab = NCC[C@H](N)C(=O)O
# What was measured:
# [1] = cited from earlier work
# Excerpt: To date, few studies have been conducted on population PK of polymyxin B ([Kwa et al., 2008]; [Sandri et al., 2013]; [Kubin et al., 2018]; [Manchandani et al., 2018]; [Miglis et al., 2018]). To our best knowledge, this study included the largest samples and most covariates from acutely-ill patients, aimed at evaluating the population PK of polymyxin B and identifying potential factors influencing the PK variability. The result indicated a two-compartment model adequately described population PK of polymyxin B in Chinese patients. Although there were studies performed using the one-compartment ... || The impact of clinical variables on population PK models of polymyxin B was always inconsistent, especially the influence of body weight and CrCL on polymyxin B clearance. […] With a low correlation coefficient (Supplementary Figure 1), this study found CrCL was a statistical covariate of polymyxin B clearance (Equ. 6), which was in agr ...
# [2] = Population pharmacokinetic analysis of polymyxin B in Chinese patients (two-compartment model, Phoenix NLME); type: in vivo, human
# Procedure: Patients who were ≥ 18 years of age, received intravenous polymyxin B (sulfate; polymyxin B injection, Shanghai First Biochemical Pharmaceutical Co., Ltd., China) for ≥ 72 hours, and were documented MDR Gram-negative bacterial infections were included. Patients with renal replacement therapy were excluded. Demographic characteristics (age, sex, and body weight), polymyxin B therapy, and laboratory data before polymyxin B TDM were collected from electronic medical records, including alanine aminotransferase (ALT), aspartate aminotransferase (AST), glutamyl transpeptidase (GGT), alkaline phosphatase (ALP), urea nitrogen, serum creatinine (Scr), serum uric acid, serum proteins, serum albumin, total bilirubin (TBIL), direct bilirubin (DBIL), and creatinine clearance (CrCL). CrCL was calculated using the Cockcroft-Gault equation with body weight ([Janmahasatian et al., 2005]).
# According to the Chinese package insert, the maintenance dose of polymyxin B was 50 to 100 million units ([…]) twice daily. The loading dose was 100 to 150 million units in clinical practice. The recommended infusion time was one hour but could be lengthened as needed. Polymyxin B treatment including dose, infusion time, and duration of therapy depended on the medical teams.
# (§1) Blood samples were obtained after 3 days of therapy. On day 4, one blood sample (2 ml, C0h) was collected immediately at pre-dose, and five to seven blood samples (mainly C0.5h, C1h, C1.5h, C2h, C4h, C6h, and C8h) were collected at pre-next dose into EDTA tubes for each patient. To calculate AUC0–12h, C0h was regarded as C12h for those who hid not obtained C0h. All samples were centrifuged at 3,500×g for 10 min. The supernatant was collected and stored at −80°C until analysis.
# Plasma concentrations of polymyxin B were determined using liquid chromatography-tandem mass spectrometry (LC-MS/MS) in the hospital laboratory. The method was previously described by our group ([Wang et al., 2020]). […] The upper limit of quantification was extended to 20 µg/ml for polymyxin B1 and 5.0 µg/ml for polymyxin B2 after four-fold dilution. For precision and accuracy, the intra- and inter-day imprecision of polymyxin B1 and B2 was less than 13.93%, and the inaccuracy ranged from −10.87 to 11.13%. Since polymyxin B1 and B2 had similar structures, molecular weight, pharmacological activities, and pharmacokinetic characteristics, the plasma concentration of polymyxin B was summed to derive the total polymyxin B1 and B2 concentrations ([Tam et al., 2011]; [Manchandani et al., 2016a]).
# Based on a previously published study ([Avedissian et al., 2019]), the PK parameters were determined by one- and two-compartmental models performed using Phoenix® NLME software (v7.0, Pharsight, Mountain View, CA, USA). Initial PK parameters were estimated by the Naive-pooled model. PK models were estimated by the first-order conditional
# where Pi is the PK parameters of the i^th patient, θ is the population PK pharmacokinetic parameters, and ηi is a normally distributed random variable with a mean of 0 and a variance of ω^2. Intra-individual variability (residual error) is described using additive (Cobs = Cpred + ϵ), proportional [Cobs = Cpred × (1+ ϵ)] or mixed (additive + proportional) models, where Cobs and Cpred are the observed and predicted concentrations, and ϵ is an error variable with a mean of 0 and a variance of σ^2. Model assessment criteria included precision of parameter estimates (standard error), goodness-of-fit plots, and likelihood ratio test (−2LL). For the one-compartment model, basic PK parameters were the volume of central compartment distribution (V) and central compartment clearance (Cl). For the two-compartment model, there were two additional parameters as the volume of peripheral compartment distribution (V2) and inter-compartmental clearance (Q). […]
# [3] = Observed AUC0-12h at steady state (linear-up-log-down method); type: in vivo; settings: human, 46 patients, steady state (day 4), intravenous, plasma, LC-MS/MS, mean ± spread
# Procedure: as §1
# Plasma concentrations of polymyxin B were determined using liquid chromatography-tandem mass spectrometry (LC-MS/MS) in the hospital laboratory. The method was previously described by our group ([Wang et al., 2020]). […] The upper limit of quantification was extended to 20 µg/ml for polymyxin B1 and 5.0 µg/ml for polymyxin B2 after four-fold dilution. For precision and accuracy, the intra- and inter-day imprecision of polymyxin B1 and B2 was less than 13.93%, and the inaccuracy ranged from −10.87 to 11.13%. […]
# The AUC0-12h of polymyxin B was calculated by the linear-up-log-down method. […] The observed and predicted AUC0-12h were analyzed using the Pearson correlation coefficient (r). […] The determination coefficient (r^2) evaluated the regression level of the equation. […]
# [4] = two-compartment population PK, 46 patients, intravenous, steady state
compound,measurement,setting,value
"CC[C@H](C)CCCCC(=O)N[C@@H](CCN)C(=O)N[C@H](C(=O)N[C@@H](CCN)C(=O)N[C@H]1CCNC(=O)[C@H]([C@@H](C)O)NC(=O)[C@H](CCN)NC(=O)[C@H](CCN)NC(=O)[C@H](CC(C)C)NC(=O)[C@@H](Cc2ccccc2)NC(=O)[C@H](CCN)NC1=O)[C@@H](C)O [polymyxin B, Polymyxin B] (X1-[Dab]T[Dab][Dab][Dab][dF]L[Dab][Dab]T; lactam 4-C)","clearance value, renal insufficient group","[1]; CrCL < 80 ml/min, P = 0.06 vs normal function group, ref Thamlikitkul et al. (2017)",2.0 L/h
same,"clearance value, normal function group","[1]; CrCL ≥ 80 ml/min, ref Thamlikitkul et al. (2017)",2.5 L/h
same,polymyxin B CL reported previously (range),"[1]; earlier population PK studies, ref not given",1.87 to 2.5 L/h
same,V estimate,[1]; ref Sandri et al. (2013),6.35 L
same,"dCldCrCL, bootstrap median","[2]; 1,000 bootstrap samples",0.357
same,"tvCl, bootstrap median","[2]; 1,000 bootstrap samples",1.771 L/h
same,"tvQ, bootstrap median","[2]; 1,000 bootstrap samples",14.427 L/h
same,"tvV2, bootstrap median","[2]; 1,000 bootstrap samples",12.073 L
same,"tvV, bootstrap median","[2]; 1,000 bootstrap samples",5.960 L
same,"tvV, typical value of volume of central compartment distribution (V), final model estimate","[2]; two-compartment population PK, 46 adult patients, 331 plasma samples, intravenous, steady state (day 4), LC-MS/MS, sum of polymyxin B1 and B2",6.218 L
same,"tvQ, typical value of inter-compartmental clearance (Q, Cl2), final model estimate",[2]; [4],13.518 L/h
same,"tvV2, typical value of volume of peripheral compartment distribution (V2), final model estimate",[2]; [4],11.922 L
same,AUC(0-t),[3],43600 ± 27700 ng·h/mL

# Source: article PMC7289991, “Population Pharmacokinetics and Limited Sampling Strategy for Therapeutic Drug Monitoring of Polymyxin B in Chinese Patients With Multidrug-Resistant Gram-Negative Bacterial Infections” (Frontiers in Pharmacology, 2020)
